Values joined by “and” are separate entries in the source; they are usually repeats but may differ in a detail not shown here. Equal entries are not always repeated. Toxic doses and inconclusive results are not listed. How the source made its calls: active means survival T/C of 150% or more; inactive means T/C below 125% in these data.
Test system: P388 leukemia ip, CD2F1 mice, survival T/C
Test: NCI In Vivo Anticancer Drug Screen. Data for tumor model P388 Leukemia (intraperitoneal) in CD2F1 (CDF1) mice
Details: endpoint: median survival time, higher = longer survival
Outline: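 Mice carrying the transplanted tumor received test compound or vehicle. Survival was recorded in each group, and the value is the treated-group measurement divided by that of the vehicle-treated control group.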

[1] = dose: 60.0 mg/kg/injection, schedule: Q01DX005 (ip), vehicle: saline with Tween-80
[2] = dose: 120.0 mg/kg/injection, schedule: Q01DX005 (ip), vehicle: saline with Tween-80
[3] = dose: 240.0 mg/kg/injection, schedule: Q01DX005 (ip), vehicle: saline with Tween-80
[4] = dose: 12.5 mg/kg/injection, schedule: Q01DX009 (ip), vehicle: saline with Tween-80
[5] = dose: 25.0 mg/kg/injection, schedule: Q01DX009 (ip), vehicle: saline with Tween-80
[6] = dose: 50.0 mg/kg/injection, schedule: Q01DX009 (ip), vehicle: saline with Tween-80
[7] = dose: 100.0 mg/kg/injection, schedule: Q01DX009 (ip), vehicle: saline with Tween-80
[8] = dose: 6.25 mg/kg/injection, schedule: Q01DX009 (ip), vehicle: saline with Tween-80
[9] = dose: 50.0 mg/kg/injection, schedule: Q01DX005 (ip), vehicle: Klucel (hydroxypropylcellulose) (HPC)
[10] = dose: 100.0 mg/kg/injection, schedule: Q01DX005 (ip), vehicle: Klucel (hydroxypropylcellulose) (HPC)
[11] = dose: 200.0 mg/kg/injection, schedule: Q01DX005 (ip), vehicle: Klucel (hydroxypropylcellulose) (HPC)
[12] = dose: 100.0 mg/kg/injection, schedule: Q04DX003 (ip), vehicle: saline with Tween-80
[13] = dose: 200.0 mg/kg/injection, schedule: Q04DX003 (ip), vehicle: saline with Tween-80
[14] = dose: 200.0 mg/kg/injection, schedule: Q01DX009 (ip), vehicle: saline with Tween-80
[15] = dose: 400.0 mg/kg/injection, schedule: Q01DX009 (ip), vehicle: saline with Tween-80

Measured: T/C

Cc1cc(Cl)ccc1NC(=O)C1C(=O)N(c2ccc(Cl)cc2C)C(=O)/C1=N\NC(N)=O (stereo unspecified)
inactive: [1] 101 % of control | [2] 93 % of control | [3] 98 % of control

CC1(C)CC(=N/O)/C(=N/O)C(=N\NC(N)=S)/C1
inactive: [1] 97 % of control | [2] 94 % of control | [3] 97 % of control

Cc1c(-c2ccccc2)sc(/N=C/c2cc(Br)cc(Br)c2O)c1C#N
inactive: [4] 99 % of control | [5] 98 % of control | [6] 100 % of control | [7] 99 % of control

CC1Cc2c([nH]c3ccc(Cl)cc23)CN1 (stereo unspecified)
inactive: dose: 3.12 mg/kg/injection, schedule: Q01DX009 (ip), vehicle: saline with Tween-80 106 % of control | [8] 100 % of control | [4] 101 % of control | [5] 101 % of control

CCN(CC)CCN=c1c(C)nc(C#N)c(N)n1O
inactive: dose: 10.0 mg/kg/injection, schedule: Q01DX009 (ip), vehicle: saline with Tween-80 100 % of control and 102 % of control and 105 % of control | dose: 20.0 mg/kg/injection, schedule: Q01DX009 (ip), vehicle: saline with Tween-80 100 % of control and 118 % of control and 96 % of control | dose: 40.0 mg/kg/injection, schedule: Q01DX009 (ip), vehicle: saline with Tween-80 98 % of control and 103 % of control | dose: 80.0 mg/kg/injection, schedule: Q01DX009 (ip), vehicle: saline with Tween-80 98 % of control and 106 % of control

CCn1ccc(NS(=O)(=O)c2ccc(N)cc2)nc1=O
inactive: [9] 98 % of control | [10] 105 % of control | [11] 100 % of control

CC(C)(C)N=NNc1ccc([N+](=O)[O-])cc1
inactive: dose: 12.5 mg/kg/injection, schedule: Q01DX009 (ip), vehicle: distilled water + Tween-80 106 % of control | dose: 25.0 mg/kg/injection, schedule: Q01DX009 (ip), vehicle: distilled water + Tween-80 100 % of control | dose: 50.0 mg/kg/injection, schedule: Q01DX009 (ip), vehicle: distilled water + Tween-80 93 % of control | dose: 100.0 mg/kg/injection, schedule: Q01DX009 (ip), vehicle: distilled water + Tween-80 86 % of control | dose: 200.0 mg/kg/injection, schedule: Q01DX009 (ip), vehicle: distilled water + Tween-80 96 % of control

COC1/C=C\OC2(C)Oc3c(C)c(O)c4c(O)c(c(/C=N/N(Cc5ccccc5)C56CC7CC(CC(C7)C5)C6)c(O)c4c3C2=O)NC(=O)/C(C)=C\C=C\C(C)C(O)C(C)C(O)C(C)C(OC(C)=O)C1C (stereo unspecified)
inactive: [6] 102 % of control | [7] 100 % of control

O=C1OCC23CCC4C1C42CC1(CC3)OCCO1 (stereo unspecified)
inactive: dose: 50.0 mg/kg/injection, schedule: Q01DX005 (ip), vehicle: saline 99 % of control | dose: 100.0 mg/kg/injection, schedule: Q01DX005 (ip), vehicle: saline 101 % of control | dose: 200.0 mg/kg/injection, schedule: Q01DX005 (ip), vehicle: saline 98 % of control

O=C(O)CCCCSCCCCCCSCCCCC(=O)O
inactive: [9] 106 % of control | [10] 105 % of control | [11] 107 % of control

c1ccc(C2(c3ccccc3)CN3CCSC3=N2)cc1
inactive: dose: 12.5 mg/kg/injection, schedule: Q04DX003 (ip), vehicle: saline with Tween-80 104 % of control | dose: 25.0 mg/kg/injection, schedule: Q04DX003 (ip), vehicle: saline with Tween-80 103 % of control | dose: 50.0 mg/kg/injection, schedule: Q04DX003 (ip), vehicle: saline with Tween-80 99 % of control | [12] 108 % of control | [13] 103 % of control

COC(=O)C1(C(C)C(=O)c2ccccc2)NC(=S)NC(=O)C1C#N (stereo unspecified)
inactive: dose: 60.0 mg/kg/injection, schedule: Q01DX005 (ip), vehicle: saline 88 % of control | dose: 120.0 mg/kg/injection, schedule: Q01DX005 (ip), vehicle: saline 98 % of control | dose: 240.0 mg/kg/injection, schedule: Q01DX005 (ip), vehicle: saline 100 % of control

CCOC(=O)c1c(C)c(C(C)=O)c2ccccn12
inactive: [1] 104 % of control | [2] 119 % of control | [3] 105 % of control

CC(C)(C)N1C(=O)[N+]2(CCCCC2)N=C1[O-]
inactive: [12] 93 % of control | [13] 99 % of control | dose: 400.0 mg/kg/injection, schedule: Q04DX003 (ip), vehicle: saline with Tween-80 86 % of control

COc1ccc(CC(=O)Cc2ccc(OC)c(OC)c2)cc1OC
inactive: [6] 101 % of control | [7] 111 % of control | [14] 95 % of control | [15] 99 % of control | dose: 600.0 mg/kg/injection, schedule: Q01DX009 (ip), vehicle: saline with Tween-80 87 % of control

CC/C(=C(/CC)c1ccc(O)cc1)c1ccc(O)cc1
inactive: dose: 50.0 mg/kg/injection, schedule: Q01DX008 (ip), vehicle: saline with Tween-80 101 % of control | dose: 100.0 mg/kg/injection, schedule: Q01DX008 (ip), vehicle: saline with Tween-80 97 % of control | dose: 200.0 mg/kg/injection, schedule: Q01DX008 (ip), vehicle: saline with Tween-80 106 % of control | dose: 400.0 mg/kg/injection, schedule: Q01DX008 (ip), vehicle: saline with Tween-80 99 % of control

O=C(CC(C(=O)c1ccccc1)N1CC1)c1ccccc1 (stereo unspecified)
inactive: [8] 95 % of control | [4] 100 % of control | [5] 100 % of control and 87 % of control | [6] 116 % of control | [7] 91 % of control

C(=C\CSc1ccccn1)/CSc1ccccn1
inactive: dose: 12.5 mg/kg/injection, schedule: Q01DX009 (ip), vehicle: Klucel (hydroxypropylcellulose) (HPC) 107 % of control | dose: 25.0 mg/kg/injection, schedule: Q01DX009 (ip), vehicle: Klucel (hydroxypropylcellulose) (HPC) 99 % of control | dose: 50.0 mg/kg/injection, schedule: Q01DX009 (ip), vehicle: Klucel (hydroxypropylcellulose) (HPC) 90 % of control and 91 % of control | dose: 200.0 mg/kg/injection, schedule: Q01DX009 (ip), vehicle: Klucel (hydroxypropylcellulose) (HPC) 91 % of control

COc1cccc(CN2CC(C)N(N=Cc3c4c(O)c5c(O)c(C)c6c(c5c3O)C(=O)C(C)(O/C=C/C(OC)C(C)C(OC(C)=O)C(C)C(O)C(C)C(O)C(C)/C=C/C=C(\C)C(=O)N4)O6)C(C)C2)c1 (stereo unspecified)
inactive: [6] 96 % of control | [7] 95 % of control | [14] 99 % of control

C=CC(=NC(C)(C)C)Nc1cccc(Cl)c1
inactive: dose: 6.25 mg/kg/injection, schedule: Q04DX003 (ip), vehicle: saline 98 % of control | dose: 12.5 mg/kg/injection, schedule: Q04DX003 (ip), vehicle: saline 102 % of control | dose: 25.0 mg/kg/injection, schedule: Q04DX003 (ip), vehicle: saline 100 % of control

CCCCCCCCOCC(=O)OC
inactive: [6] 106 % of control | [7] 107 % of control | [14] 101 % of control

Cc1c(CCNC=O)cc(C)c2c3c(oc12)CCCC3
inactive: [6] 91 % of control | [7] 91 % of control | [14] 94 % of control | [15] 91 % of control

CCCCOc1ccc(C(C)c2cc3c(cc2OC)OCO3)cc1 (stereo unspecified)
inactive: dose: 25.0 mg/kg/injection, schedule: Q01DX005 (ip), vehicle: Klucel (hydroxypropylcellulose) (HPC) 107 % of control | [9] 95 % of control | [10] 101 % of control | [11] 98 % of control

Cc1cc(NC(=O)C(=O)C(C#N)c2cccc(Cl)c2)no1 (stereo unspecified)
inactive: dose: 50.0 mg/kg/injection, schedule: Q01DX005 (ip), vehicle: saline with Tween-80 100 % of control | dose: 100.0 mg/kg/injection, schedule: Q01DX005 (ip), vehicle: saline with Tween-80 101 % of control | dose: 200.0 mg/kg/injection, schedule: Q01DX005 (ip), vehicle: saline with Tween-80 108 % of control

Source: PubChem BioAssay AID330 (DTP/NCI, 2004)
